In patent publication US8143282B2, “Heterocyclic compounds” (S*BIO Pte Ltd., priority 2005, dated 2012) one finds IC50 and GI50 data, which are given here for 24 compounds.

One assay addresses T1, HDAC1 enzyme (Homo sapiens, UniProt Q13547).
T1 construct: Amplification of human HDAC1 coding region from this cDNA library was cloned separately into the baculovirus expression pDEST20 vector; made in house; host or cells: SF9 insect cells, pDEST20-HDAC1 baculovirus
In words: In vitro HDAC assay for determination of IC50 values (BIOMOL fluorescent-based HDAC activity assay). The format is biochemical. On the procedure: Human cDNA library was prepared using cultured SW620 cells. Amplification of human HDAC1 coding region from this cDNA library was cloned separately into the baculovirus expression pDEST20 vector (GATEWAY Cloning Technology, Invitrogen Pte Ltd). The pDEST20-HDAC1 construct was confirmed by DNA sequencing. Recombinant baculovirus was prepared using the Bac-To-Bac method following the manufacturer's instruction (Invitrogen Pte Ltd).
Expression of GST-HDAC1 was done by infecting SF9 cells (Invitrogen Pte Ltd) with pDEST20-HDAC1 baculovirus at MOI=1 for 48 h. Soluble cell lysate was incubated with pre-equilibrated Glutathione Sepharose 4B beads (Amersham) at 4° C. for 2 h. The beads were washed with PBS buffer for 3 times. The GST-HDAC1 protein was eluted by elution buffer containing 50 mM Tris, pH8.0, 150 mM NaCl, 1% Triton X-100 and 10 mM or 20 mM reduced Glutathione. The purified GST-HDAC1 protein was dialyzed with HDAC storage buffer containing 10 mM Tris, pH7.5, 100 mM NaCl and 3 mM MgCl2. 20% Glycerol was added to purified GST-HDAC1 protein before storage at −80° C.
The assay has been carried out in 96 well format and the BIOMOL fluorescent-based HDAC activity assay has been applied. […] Flur de lys Developer was added and the reaction was incubated for 10 min. Briefly, deacetylation of the substrate sensitizes it to the developer, which then generates a fluorophore. The fluorophore is excited with 360 nm light and the emitted light (460 nm) is detected on a fluorometric plate reader (Tecan Ultra Microplate detection system, Tecan Group Ltd.).
The analytical software, Prism 4.0 (GraphPad Software Inc) has been used to generate IC50 from a series of data.

The test system of another assay is Colo205 cells. The assay can be described thus: Cell-based proliferation assay for GI50 (CyQUANT), Colo205. As to conditions: Homo sapiens, COLO 205, 96 h treatment, read-out: Cellular or Growth Inhibition Activity in Colo205 cells, GI50. The method, then: Human colon cancer cell lines (Colo205, HCT116), Ovarian cancer cell line (A2780), Hepatoma cell line (HEP3B), Prostate cancer cell line (PC3) were obtained from ATCC or ECACC. Colo205 cells were cultivated in RPMI 1640 containing 2 mM L-Glutamine, 5% FBS, 1.0 mM Na Pyruvate, 1 U/ml of penicillin and 1 μg of streptomycin. HCT116 cells were cultivated in McCoy's containing RPMI 1640 containing 2 mM L-Glutamine, 5% FBS, 1 U/ml of penicillin and 1 μg of streptomycin. A2780 cells were cultivated in RPMI 1640 containing 2 mM L-Glutamine, 5% FBS, 1 U/ml of penicillin and 1 μg of streptomycin. HEP3B cells were cultivated in EMEM containing 2 mM L-glutamine, 5% FBS, 1% non essential amino acid, 1 mM Na Pyruvate, 1 U/ml of penicillin and 1 μg of streptomycin. PC3 cells were cultivated in F12K, 2 mM L-glutamine, 5% FBS, 1 U/ml of penicillin and 1 μg of streptomycin. PC3, Colo205, and HCT116 cells were seeded in 96-wells plate at 1000, 5000 and 6000 cells per well respectively. A2780 and HEP3B cells were seeded in 96-wells plate at 4000 cells per well respectively. The plates were incubated at 37° C., 5% CO2, for 24 h. Cells were treated with compounds at various concentrations for 96 h. Cell growth was then monitored using CyQUANT® cell proliferation assay (Invitrogen Pte Ltd). Dose response curves were plotted to determine GI50 values for the compounds using XL-fit (ID Business Solution, Emeryville, Calif.). GI50 is defined as the concentration of compound required for 50% inhibition of cell growth.

T1 sequence (Q13547 whole entry): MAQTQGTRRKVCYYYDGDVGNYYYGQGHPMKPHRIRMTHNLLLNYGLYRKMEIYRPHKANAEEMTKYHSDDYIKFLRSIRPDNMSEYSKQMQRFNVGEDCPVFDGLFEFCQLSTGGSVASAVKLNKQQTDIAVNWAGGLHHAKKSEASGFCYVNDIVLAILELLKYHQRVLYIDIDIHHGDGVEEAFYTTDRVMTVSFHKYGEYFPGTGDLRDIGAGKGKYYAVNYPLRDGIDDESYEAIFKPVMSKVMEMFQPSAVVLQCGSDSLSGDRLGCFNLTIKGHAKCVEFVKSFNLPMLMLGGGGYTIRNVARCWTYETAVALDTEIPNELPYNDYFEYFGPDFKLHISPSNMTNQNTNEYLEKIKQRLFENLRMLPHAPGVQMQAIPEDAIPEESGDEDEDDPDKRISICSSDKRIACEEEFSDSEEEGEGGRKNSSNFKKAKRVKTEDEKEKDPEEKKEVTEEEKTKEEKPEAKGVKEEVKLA

With `CC(Cc1nc2cc(/C=C/C(=O)NO)ccc2n1CCN(C(C)C)C(C)C)CC(C)(C)C` (stereo not drawn) [Compound 38, 3-[1-(2-Diisopropylamino-ethyl)-2-(2,4,4-trimethyl-pentyl)-1H-benzoimidazol-5-yl]-N-hydroxy-acrylamide], the IC50 against HDAC1 enzyme worked out at 560 nM. Moreover, in the assay on Colo205 cells, the GI50 stood at 1940 nM.

The compound `CC(Cc1nc2cc(/C=C/C(=O)NO)ccc2n1CCNC(C)C)CC(C)(C)C` (stereo not drawn) [Compound 39, N-Hydroxy-3-[1-(2-isopropylamino-ethyl)-2-(2,4,4-trimethyl-pentyl)-1H-benzoimidazol-5-yl]-acrylamide] returned an IC50 at HDAC1 enzyme of 24 nM. Moreover, in the assay with Colo205 cells, the GI50 turned out to be 230 nM.

For the compound `CCN(CC)CCn1c(CC(C)CC(C)(C)C)nc2cc(/C=C/C(=O)NO)ccc21` (stereo not drawn) [Compound 41, 3-[1-(2-Diethylamino-ethyl)-2-(2,4,4-trimethyl-pentyl)-1H-benzoimidazol-5-yl]-N-hydroxy-acrylamide], at HDAC1 enzyme, the IC50 turned out to be 62 nM. Also, in the assay on Colo205 cells, the GI50 worked out at 920 nM.

The compound `CCCc1nc2cc(/C=C/C(=O)NO)ccc2n1CCN(CC)CC` [Compound 42, 3-[1-(2-Diethylamino-ethyl)-2-propyl-1H-benzoimidazol-5-yl]-N-hydroxy-acrylamide] returned an IC50 against HDAC1 enzyme of 150 nM. For the same compound, the GI50 in the assay with Colo205 cells was 980 nM.

As for `CCCCc1nc2cc(/C=C/C(=O)NO)ccc2n1CCN(C(C)C)C(C)C` [Compound 43, 3-[2-Butyl-1-(2-diisopropylamimo-ethyl)-1H-benzoimidazol-5-yl]-N-hydroxy-acrylamide], inhibition against HDAC1 enzyme was half-maximal at 330 nM (IC50). Moreover, in the assay on Colo205 cells, the GI50 turned out to be 1860 nM.

Take `CCN(CC)CCn1c(CCSC)nc2cc(/C=C/C(=O)NO)ccc21` [Compound 45, 3-[1-(2-Diethylamino-ethyl)-2-(2-methylsulfanyl-ethyl)-1H-benzoimidazol-5-yl]-N-hydroxy-acrylamide]: the IC50 against HDAC1 enzyme was determined as 53 nM. Moreover, the GI50 in the assay on Colo205 cells worked out at 540 nM.

`CCCCc1nc2cc(/C=C/C(=O)NO)ccc2n1CCCNC(C)C` [Compound 47, 3-[2-Butyl-1-(3-isopropylamino-propyl)-1H-benzoimidazol-5-yl]-N-hydroxy-acrylamide] returned an IC50 on HDAC1 enzyme of 210 nM. For the same compound, in the assay with Colo205 cells, the GI50 stood at 3600 nM.

At HDAC1 enzyme, `CCCCc1nc2cc(/C=C/C(=O)NO)ccc2n1C1CCN(Cc2ccccc2)CC1` [Compound 48, 3-[1-(1-Benzyl-piperidin-4-yl)-2-butyl-1H-benzoimidazol-5-yl]-N-hydroxy-acrylamide] had an IC50 of 430 nM. The GI50 with Colo205 cells turned out to be 780 nM.

Compound `C=CCCc1nc2cc(/C=C/C(=O)NO)ccc2n1CCNCC` [Compound 49, 3-[2-But-3-enyl-1-(2-ethylamino-ethyl)-1H-benzoimidazol-5-yl]-N-hydroxy-acrylamide] displayed an IC50 against HDAC1 enzyme of 110 nM. Besides, the GI50 with Colo205 cells worked out at 1750 nM.

On to `CC(Cc1nc2cc(/C=C/C(=O)NO)ccc2n1CCN(C)C)CC(C)(C)C` (stereo not drawn) [Compound 51, 3-[1-(2-Dimethylamino-ethyl)-2-(2,4,4-trimethyl-pentyl)-1H-benzoimidazol-5-yl]-N-hydroxy-acrylamide], for which, on HDAC1 enzyme, the IC50 was found to be 66 nM. For the same compound, the concentration for 50% growth inhibition (GI50) in the assay with Colo205 cells is 260 nM.

`CC(C)NCCn1c(CCC(F)(F)F)nc2cc(/C=C/C(=O)NO)ccc21` [Compound 53, N-Hydroxy-3-[1-(2-isopropylamino-ethyl)-2-(3,3,3-trifluoro-propyl)-1H-benzoimidazol-5-yl]-acrylamide] had an IC50 against HDAC1 enzyme of 100 nM. In addition, in the assay on Colo205 cells, the GI50 worked out at 1050 nM.

With `CC/C=C\CCc1nc2cc(/C=C/C(=O)NO)ccc2n1CCN(C)C` [Compound 54, 3-[1-(2-Dimethylamino-ethyl)-2-hex-3-enyl-1H-benzoimidazol-5-yl]-N-hydroxy-acrylamide], on HDAC1 enzyme, half-maximal inhibition (IC50) required 48 nM. The GI50 in the assay with Colo205 cells came to 460 nM.

At HDAC1 enzyme, `CC(Cc1nc2cc(/C=C/C(=O)NO)ccc2n1CCN)CC(C)(C)C` (stereo not drawn) [Compound 55, 3-[1-(2-Amino-ethyl)-2-(2,4,4-trimethyl-pentyl)-1H-benzoimidazol-5-yl]-N-hydroxy-acrylamide] gave an IC50 of 37 nM. The GI50 in the assay on Colo205 cells came to 910 nM.

Turning to `CCCCCCCC(Cc1nc2cc(/C=C/C(=O)NO)ccc2n1CCN)OC` (stereo not drawn) [Compound 56, 3-[1-(2-Amino-ethyl)-2-(2-methoxy-nonyl)-1H-benzoimidazol-5-yl]-N-hydroxy-acrylamide], the IC50 on HDAC1 enzyme amounted to 29 nM. Besides, the GI50 in the assay on Colo205 cells was determined as 900 nM.

Turning to `CCN(CC)CCn1c(CCNC(=O)CC(C)(C)C)nc2cc(/C=C/C(=O)NO)ccc21` [Compound 59, N-{2-[1-(2-Diethylamino-ethyl)-5-(2-hydroxycarbamoyl-vinyl)-1H-benzoimidazol-2-yl]-ethyl}-3,3-dimethyl-butyramide], the IC50 against HDAC1 enzyme is 77 nM. Besides, in the assay on Colo205 cells, the GI50 worked out at 2280 nM.

Compound `CCN(CC)CCn1c(CCNC(=O)C(C)(C)C)nc2cc(/C=C/C(=O)NO)ccc21` [Compound 60, 3-{1-(2-Diethylamino-ethyl)-2-[2-(2,2-dimethyl-propionylamino)-ethyl]-1H-benzoimidazol-5-yl}-N-hydroxy-acrylamide] gave an IC50 against HDAC1 enzyme of 100 nM. Further, the GI50 with Colo205 cells turned out to be 2480 nM.

In the case of `CCN(CC)CCn1c(CNC(=O)C(C)(C)C)nc2cc(/C=C/C(=O)NO)ccc21` [Compound 61, 3-{1-(2-Diethylamino-ethyl)-2-[(2,2-dimethyl-propionylamino)-methyl]-1H-benzoimidazol-5-yl}-N-hydroxy-acrylamide], 70 nM corresponded to half-maximal inhibition at HDAC1 enzyme (IC50). Further, in the assay on Colo205 cells, the GI50 turned out to be 1320 nM.

The compound `CCCC(=O)NCc1nc2cc(/C=C/C(=O)NO)ccc2n1CCN(CC)CC` [Compound 62, N-[1-(2-Diethylamino-ethyl)-5-(2-hydroxycarbamoyl-vinyl)-1H-benzoimidazol-2-ylmethyl]-butyramide] displayed an IC50 against HDAC1 enzyme of 54 nM. In the assay on Colo205 cells, the GI50 was determined as 2600 nM.

In turn, `CN(C)CCn1c(CCC(C)(C)C)nc2cc(/C=C/C(=O)NO)ccc21` [Compound 64, 3-[2-(3,3-Dimethyl-butyl)-1-(2-Dimethylamino-ethyl)-1H-benzoimidazol-5-yl]-N-hydroxy-acrylamide] had an IC50 against HDAC1 enzyme of 100 nM. The GI50 in the assay with Colo205 cells was 730 nM.

At HDAC1 enzyme, `CN(C)CCn1c(CC(F)(F)F)nc2cc(/C=C/C(=O)NO)ccc21` [Compound 66, 3-[1-(2-Dimethylamino-ethyl)-2-(2,2,2-trifluoro-ethyl)-1H-benzoimidazol-5-yl]-N-hydroxy-acrylamide] returned an IC50 of 340 nM. The GI50 with Colo205 cells is 8800 nM.

On HDAC1 enzyme, `CCCCc1nc2cc(/C=C/C(=O)NO)ccc2n1C1CCNCC1` [Compound 70, 3-(2-Butyl-1-piperidin-4-yl-1H-benzoimidazol-5-yl)-N-hydroxy-acrylamide] yielded an IC50 of 68 nM. Besides, the GI50 in the assay with Colo205 cells turned out to be 7000 nM.

At HDAC1 enzyme, `CCCCC/C=C\CCc1nc2cc(/C=C/C(=O)NO)ccc2n1CCNC` [Compound 72, N-Hydroxy-3-[1-(2-methylamino-ethyl)-2-non-3-enyl-1H-benzoimidazol-5-yl]-acrylamide] displayed an IC50 of 17 nM. Further, the GI50 with Colo205 cells was 160 nM.

Compound `CC/C=C\CCCCCc1nc2cc(/C=C/C(=O)NO)ccc2n1CCNC` [Compound 73, N-Hydroxy-3-[1-(2-methylamino-ethyl)-2-non-6-enyl-1H-benzoimidazol-5-yl]-acrylamide] registered an IC50 on HDAC1 enzyme of 26 nM. In addition, the GI50 in the assay with Colo205 cells was 230 nM.

`CCCCCc1nc2cc(/C=C/C(=O)NO)ccc2n1CCNC` [Compound 75, N-Hydroxy-3-[1-(2-methylamino-ethyl)-2-pentyl-1H-benzoimidazol-5-yl]-acrylamide] yielded a 50% inhibitory concentration (IC50) on HDAC1 enzyme of 50 nM. The GI50 in the assay with Colo205 cells was 1200 nM.

As usually defined, the IC50 is the point on the concentration scale where inhibition reaches its midpoint. A low value points to greater potency. The term GI50 denotes the concentration that inhibits growth by half.
